Assay results taken from patent publication US20020015943A1, “Assays, methods and means relating to the modulation of levels of nuclear beta-catenin” (priority 2000, published 2002).
Entries after “also recorded” stand apart in the source; their conditions may differ.

Key:
[1] = tested on: nuclear β-catenin in SW480 cells; assay: Complementation assay in transfected SW480 cells, immunofluorescence of APC construct and β-catenin; format: cell-based
Description: All constructs were inserted into pEGFP-C2 (Clontech), producing N-terminally tagged GFP fusions. Each construct (except HC and HCala, see below) also contains a triple hemagglutinin (HA) tag inserted between GFP and APC coding sequence. In coreNES, the following NES-encoding sequences were inserted between the HA tag and the ARDcore (first of a pair human, second Drosophila, bold NES residues were substituted to alanine in coreNESala; in coreNEScon, underlined conserved non-NES residues were substituted by alanine): 203, […], […]; 20R4, […], […]; 20R7, […]. coreNESmin from Drosophila 20R4 contains ISGLSHLTVGSA (bold residues substituted by alanine in the mutant version). We also fused the putative NES from Drosophila pseudoR20 (FIG. 1, arrowhead) to ARDcore, but this NES candidate ([…]) was non-functional. For the complementation assays in SW480 cells, a central fragment from human APC (codons 1379-2080) was N-terminally tagged with GFP (HC, see above). The above described alanine substitutions of 20R-linked NESs were introduced into HC, and into GFP-E-APC, using the Quik-Change Site-Directed Mutagenesis Kit (Stratagene), HCala1 and HCala2 are partial mutants retaining one and two NESs, respectively (see text) All constructs were verified by sequencing.
Monkey COS cells were grown in DMEM medium (supplemented with 10% fetal calf serum), and transfected with FuGENE™ (Morin, P. J. et al. Science 275, 1787-1790 (1997)) Transfection Reagent (Roche). SW480 and HCT116 cells were grown in Leibovitz's L15 medium (with 10% fetal calf serum), and transfected with Lipofectamine (Life Technologies Inc.). 0.4 or […] DNA was used per transfection of COS or SW480 cells (in 35 mm culture wells), respectively. Transfected cells were harvested for analysis after 24-48 hours. […]
(§1) Qualitative analysis was thus backed up by quantitative evaluation of 10-20 randomly chosen fields in which each individual healthy cell was scored. Ratios of nuclear to cytoplasmic fluorescence levels were determined.

[2] = tested on: nuclear export receptor CRM1; assay: Subcellular distribution of GFP-tagged APC constructs in transfected COS cells with or without LMB; format: cell-based, monkey
Description: All constructs were inserted into pEGFP-C2 (Clontech), producing N-terminally tagged GFP fusions. Each construct (except HC and HCala, see below) also contains a triple hemagglutinin (HA) tag inserted between GFP and APC coding sequence. In coreNES, the following NES-encoding sequences were inserted between the HA tag and the ARDcore (first of a pair human, second Drosophila, bold NES residues were substituted to alanine in coreNESala; in coreNEScon, underlined conserved non-NES residues were substituted by alanine): 203, […], […]; 20R4, […], […]; 20R7, […]. coreNESmin from Drosophila 20R4 contains […] (bold residues substituted by alanine in the mutant version). […] For the complementation assays in SW480 cells, a central fragment from human APC (codons 1379-2080) was N-terminally tagged with GFP (HC, see above). The above described alanine substitutions of 20R-linked NESs were introduced into HC, and into GFP-E-APC, using the Quik-Change Site-Directed Mutagenesis Kit (Stratagene), HCala1 and HCala2 are partial mutants retaining one and two NESs, respectively (see text) All constructs were verified by sequencing.
Monkey COS cells were grown in DMEM medium (supplemented with 10% fetal calf serum), and transfected with FuGENE™ (Morin, P. J. et al. Science 275, 1787-1790 (1997)) Transfection Reagent (Roche). SW480 and HCT116 cells were grown in Leibovitz's L15 medium (with 10% fetal calf serum), and transfected with Lipofectamine (Life Technologies Inc.). 0.4 or […] DNA was used per transfection of COS or SW480 cells (in 35 mm culture wells), respectively. Transfected cells were harvested for analysis after 24-48 hours. For staining, cells were either fixed with chilled methanol for 10 min. at −20° C. or fixed with 4% paraformaldehyde (freshly prepared, in phosphate buffered saline) for 30 min. Cells were then permeabilised with 0.1% Triton X-100 and blocked with bovine serum albumin for 15 min. each, and subsequently incubated at room temperature with primary and secondary antibody for 60 and 30 min, respectively. COS cells were treated with LMB (50 ng/ml)) for 1-2 hours 24 hours after transfection, SW480 cells for 2 hours 48 hours after transfection.
as §1

[3] = molecular target: T1, nuclear export receptor CRM1 (Drosophila melanogaster, UniProt Q9TVM2); assay: Endogenous E-APC localisation in LMB-treated permeabilised Drosophila embryos; format: cell-based; conditions: 80 ng/ml LMB 60 min
T1 construct: 0-6 hours old embryos were permeabilised in octane; from tissue; host or cells: octane-permeabilised Drosophila embryos, 0-6 hours old
T1 sequence (Q9TVM2 whole entry): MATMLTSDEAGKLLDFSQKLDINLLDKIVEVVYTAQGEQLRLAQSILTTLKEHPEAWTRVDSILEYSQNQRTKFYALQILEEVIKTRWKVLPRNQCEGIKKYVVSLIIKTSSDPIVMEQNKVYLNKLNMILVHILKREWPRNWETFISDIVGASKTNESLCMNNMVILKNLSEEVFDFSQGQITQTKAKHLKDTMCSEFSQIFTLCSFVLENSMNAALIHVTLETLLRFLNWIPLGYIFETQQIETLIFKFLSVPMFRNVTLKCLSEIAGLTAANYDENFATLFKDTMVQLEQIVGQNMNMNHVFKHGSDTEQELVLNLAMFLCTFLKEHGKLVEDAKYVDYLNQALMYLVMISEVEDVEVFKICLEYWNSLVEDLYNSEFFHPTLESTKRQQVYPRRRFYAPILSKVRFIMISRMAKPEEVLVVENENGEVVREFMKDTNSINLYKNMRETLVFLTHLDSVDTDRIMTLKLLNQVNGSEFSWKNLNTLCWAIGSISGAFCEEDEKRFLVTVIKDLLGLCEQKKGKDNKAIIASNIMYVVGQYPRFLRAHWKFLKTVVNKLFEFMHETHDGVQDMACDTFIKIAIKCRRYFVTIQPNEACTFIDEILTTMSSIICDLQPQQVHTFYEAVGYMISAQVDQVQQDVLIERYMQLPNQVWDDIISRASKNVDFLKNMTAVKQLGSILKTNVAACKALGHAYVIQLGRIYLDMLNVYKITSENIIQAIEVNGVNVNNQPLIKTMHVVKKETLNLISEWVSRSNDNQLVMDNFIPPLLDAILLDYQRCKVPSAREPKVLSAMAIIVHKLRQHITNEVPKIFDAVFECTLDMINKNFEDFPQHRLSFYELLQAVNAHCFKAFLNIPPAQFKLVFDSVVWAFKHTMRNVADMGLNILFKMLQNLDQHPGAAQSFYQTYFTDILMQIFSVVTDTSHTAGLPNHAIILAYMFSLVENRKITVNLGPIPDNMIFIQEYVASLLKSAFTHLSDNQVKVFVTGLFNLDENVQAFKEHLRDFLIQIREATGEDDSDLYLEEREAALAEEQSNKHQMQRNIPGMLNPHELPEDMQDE
Method: Drosophila embryos were fixed and stained as described (Yu, X. et al. Nature Cell Biol 3, 144-151 (1999)). For drug treatments, 0-6 hours old embryos were permeabilised in octane (Lantz, V. A. et al. Mech Dev 85, 111-122 (1999)) and subsequently incubated for 60 min. with 80 ng/ml LMB. Controls were octane-permeabilised and incubated in solvent alone (<1% ethanol).
The following antibodies were used: rabbit anti-E-APC (1:10′000) (Yu, X. et al. Nature Cell Biol 3, 144-151 (1999), rabbit anti-APC (1:700) (Näthke, I. S. et al. J Cell Biol 134, 165-179 (1996)), mouse anti-lamin (1:150), mouse anti-β-catenin (1:500; Transduction Laboratories), Alexa Red and Green (1:500; Molecular Probes). images were collected on an MRC 1024 confocal microscope.

nuclear β-catenin = assay: TOPFLASH/FOPFLASH luciferase transcriptional read-out of nuclear β-catenin in SW480 cells; format: cell-based; conditions: TOPFLASH, versus mock-transfected
Method: pTOPFLASH and pFOPFLASH were used for transcriptional read-out assays of nuclear β-catenin in SW480 cells (Korinek, V. et al. Science 275, 1784-1787 (1997)). pRL-CMV served as an internal control, and luciferase assays were performed with the Dual Luciferase™ Reporter Assay System (Promega). Relative luciferase activities (x100) were obtained by dividing TOP- or FOP-FLASH values by pRL-CMV values (FIG. 3). TOP-FLASH values reflect averages of 2-4 independent transfections, their standard deviations are given.

[4] = HC-transfected SW480 cells, LMB 2 hours

## CCC(=C/[C@H](C)C/C=C/C(C)=C/[C@@H](C)C(=O)[C@@H](C)[C@H](O)[C@@H](C)C/C(C)=C/C(=O)O)/C=C/[C@@H]1OC(=O)C=C[C@@H]1C [LMB, leptomycin B]
[1]; [4]
  effect on localisation of HC: caused nuclear retention of HC
  effect on reduction of nuclear β-catenin by HC: attenuated the reduction of nuclear β-catenin by HC
[2]; LMB 50 ng/ml 1-2 hours
  effect on nuclear exclusion / distribution of Cterm1 and Cterm2: blocked; also recorded: even distribution of Cterm1 and 2 throughout cytoplasm and nucleus
  effect on nuclear exclusion of coreNES fusions: abolishes the nuclear exclusion of all coreNES fusions
  effect on subcellular distribution of ARDcore and coreNESala mutants: neither affected
[2]; LMB treatment (not shown)
  effect on distribution of full-length E-APC: accumulated to some extent in the nucleus
[3]
  effect on localisation of endogenous E-APC: E-APC was found to accumulate in the nuclei; also recorded: endogenous E-APC is retained efficiently in nuclei

B1: HC: central fragment from human APC (codons 1379-2080) N-terminally tagged with GFP, expressed by transfection (protein, UniProt P25054 1379-2080, looked up, fragment)
chain: ETPLMFSRCTSVSSLDSFESRSIASSVQSEPCSGMVSGIISPSDLPDSPGQTMPPSRSKTPPPPPQTAQTKREVPKNKAPTAEKRESGPKQAAVNAAVQRVQVLPDADTLLHFATESTPDGFSCSSSLSALSLDEPFIQKDVELRIMPPVQENDNGNETESEQPKESNENQEKEAEKTIDSEKDLLDDSDDDDIEILEECIISAMPTKSSRKAKKPAQTASKLPPPVARKPSQLPVYKLLPSQNRLQPQKHVSFTPGDDMPRVYCVEGTPINFSTATSLSDLTIESPPNELAAGEGVRGGAQSGEFEKRDTIPTEGRSTDEAQGGKTSSVTIPELDDNKAEEGDILAECINSAMPKGKSHKPFRVKKIMDQVQQASASSSAPNKNQLDGKKKKPTSPVKPIPQNTEYRTRVRKNADSKNNLNAERVFSDNKDSKKQNLKNNSKVFNDKLPNNEDRVRGSFAFDSPHHYTPIEGTPYCFSRNDSLSSLDFDDDDVDLSREKAELRKAKENKESEAKVTSHTELTSNQQSANKTQAIAKQPINRGQPKPILQKQSTFPQSSKDIPDRGAATDEKLQNFAIENTPVCFSHNSSLSSLSDIDQENNNKENEPIKETEPPDSQGEPSKPQASGYAPKSFHVEDTPVCFSRNSSLSSLSIDSEDDLLQECISSAMPKKKKPSRLKGDNEKHSPRNMGGILGEDLTLDL
modifications: N-terminal GFP tag
notes: central fragment from human APC (codons 1379-2080) N-terminally tagged with GFP, expressed by transfection
Nuclear β-catenin
  reduction of luciferase activity (transcriptional activity of nuclear β-catenin): much reduced
[1]; transfected SW480 cells, immunofluorescence
  reduction of nuclear β-catenin by transfected construct: strongly reduced nuclear β-catenin
